How the values were obtained:
[1] = target: T1, Human leukocyte elastase (HLE-G) (Homo sapiens, UniProt P08246); experiment: Inhibition of HLE-G enzymatic activity; type: biochemical
T1 construct: purchased Athens Research & Technology 16-14-051200
T1 sequence (P08246 30-267): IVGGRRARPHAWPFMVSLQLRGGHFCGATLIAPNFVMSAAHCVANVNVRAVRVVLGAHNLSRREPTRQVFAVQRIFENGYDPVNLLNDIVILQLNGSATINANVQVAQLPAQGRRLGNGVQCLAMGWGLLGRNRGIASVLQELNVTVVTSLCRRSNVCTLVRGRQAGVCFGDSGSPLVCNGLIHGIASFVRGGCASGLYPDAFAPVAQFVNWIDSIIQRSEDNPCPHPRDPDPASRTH
Method: Inhibition of HLE-G enzymatic activity. Two-fold serial dilutions of HLE-G in 100 µl Tris-buffered saline (pH 7.8) were added to rows of wells of a microtiter plate as previously described ([Bristow et al., 1991]). […] The microtiter plate was incubated for 10 min at 37°C. The HLE-G substrate (Succinyl-L-Ala-L-Ala-L-Ala-p-nitroanilide, Sigma) was added to all wells, and absorbance at 405 nm was detected kinetically at 23°C using an MRX plate reader.

[2] = target: T2, cell surface human leukocyte elastase (HLE-CS) on U937 Clone 10 cells (Homo sapiens, UniProt P08246); experiment: Cellular adherence to glass (HLE-CS interaction); type: cell-based; conditions: 2,000 U937 cells per well
T2 construct: endogenous in cells; host or cells: human U937 Clone 10 cells
T2 sequence (P08246 30-267): T1 sequence (P08246 30-267)
From the text: Cellular adherence. […] […] Unattached cells were removed by washing using AIM-V, and attached cells were fixed by application of 4% paraformaldehyde. Attached cells were counted by light microscopy.

[3] = Diet-induced obesity (DIO) mouse model, lipoprotein levels; type: in vivo, C57BL/6J mice; conditions: 60% fat diet, daily oral gavage, vs vehicle control
Method: Animal Studies. Animal studies were performed by Jackson Laboratory (Bar Harbor, ME), an OLAW-Assured and AAALAC accredited institution. All research was reviewed and approved by the Institutional Animal Care and Use Committee (IACUC) prior to commencing. The study used 16–17 weeks old male DIO C57BL/6J mice that had been maintained on a 10% (control) or 60% high-fat diet. […] Treatment was delivered by daily oral gavage at the same time of day for 12 weeks. Blood was collected by retro-orbital bleed every 3 weeks for measurement of total cholesterol, LDL, HDL, triglycerides, […] free fatty acids and glucose using the Beckman Coulter AU680 Chemistry System.
Food consumption was monitored twice weekly, and body weight was monitored weekly. As mice gained weight on the 60% high-fat diet during the study, dosing was adjusted accordingly. Mice were monitored for adverse effects (e.g., labored breathing, aberrant weight change). Three mice were lost during the study. […] The mice lost in the ezetimibe group were due to a severe bite wound and an unknown causes. The mouse lost in the Alphataxin group was due to an abnormal amount of gas in the stomach attributed to a gavaging error.

[4] = system: Leishmania amazonensis promastigotes; set-up: method as in Andrade-Neto et al., 2016; conditions: ref Andrade-Neto et al., 2016; read-out: IC50 for killing Leishmania amazonensis promastigotes; cited from earlier work
[5] = set-up: method as in Nissen et al., 2016; conditions: ref Nissen et al., 2016, cited from earlier work
Lactobacillus spp. = system: Lactobacillus spp.; set-up: method as in Catry et al., 2015; conditions: ref Catry et al., 2015; cited from earlier work

## O=C1[C@H](CC[C@H](O)c2ccc(F)cc2)[C@@H](c2ccc(O)cc2)N1c1ccc(F)cc1 [Ezetimibe]
[1]; compound vs. HLE-G (75 µM), 10 min at 37°C, 5 min with substrate
  IC50: 277 µM
[1]; molar excess of compound to HLE-G at IC50
  HLE-G Molar excess: 3.7
[2]; at optimal concentration
  HLE-CS Adherent cells: 40 ± 3
[2]; optimal adherence concentration
  HLE-CS Optimal concentration: 100 nM
[3]; after 3 weeks, ezetimibe 10 mg/kg, Alphataxin 5 mg/kg
  LDL levels: significantly decreased
[3]; weeks 3, 6, 8
  triglyceride levels: did not
[4]
  IC50: 30 µM
[5]; p < 0.001
  effectiveness in lowering LDL levels vs PCSK9 inhibitors: significantly less effective
[5]
  individuals with muscle symptoms: 28%
Lactobacillus spp.
  effect on intestinal microbiome: increasing the Lactobacillus spp.

— publication PMC8220083 (Frontiers in Pharmacology, 2021)
